Read-outs that look alike come from different tables or passages of the source. Where no end group is shown, it is not given here.

The experiment has as its system SARS-CoV-2. The settings on record: 1 h.

Take “KYLLVHRPYYRR [SEQ ID NO: 3, KYLLVHRPYYRR]”: the Inhibition rate by setting is: (2.5 mM) 98%; (10 mM) 98%.

For “WVPYQARVPYPR [SEQ ID NO: 4, WVPYQARVPYPR]”, the Inhibition rate (2.5 mM) is listed as 55% and the Inhibition rate (10 mM) came to 98%.

With KFNRRHH [SEQ ID NO: 2, KFNRRHH], the Inhibition rate amounted to 51% (2.5 mM) and 96% (10 mM).

As to RSYMTTHHEQF [SEQ ID NO: 1, RSYMTTHHEQF], the Inhibition rate was 21% (2.5 mM) and 100% (10 mM).
